Measurements reported in ChEMBL document CHEMBL5055630, “Design, synthesis and biological evaluation of indole-based [1,2,4]triazolo[4,3-a] pyridine derivatives as novel microtubule polymerization inhibitors” (Eur J Med Chem, 2021).

What was measured:
[1] = test system: HeLa; test: Induction of apoptosis in human HeLa cells assessed as necrotic cells at 5 nM incubated for 48 hrs by Annexin V and propidium iodide Staining based assay (reference value: 0.4%); format: functional
[2] = Metabolic stability in human liver microsomes assessed as parent compound remaining measured immediately after compound addition; format: ADME, Microsome; details: read-out: Stability
[3] = test system: MCF7; test: Antiproliferative activity against human MCF7 assessed as reduction in cell viability measured after 48 hrs by MTT assay; format: functional, cell-based; details: MCF7, 48 h
[4] = test system: A549; test: Antiproliferative activity against human A549 assessed as reduction in cell viability measured after 48 hrs by MTT assay; format: functional, cell-based; details: A549, 48 h
[5] = test system: HeLa; test: Induction of apoptosis in human HeLa cells assessed as early apoptotic cells at 5 nM incubated for 48 hrs by Annexin V and propidium iodide Staining based assay (reference value: 0.2%); format: functional
[6] = Metabolic stability in human liver microsomes assessed as parent compound remaining after 90 mins; format: ADME, Microsome; details: read-out: Stability
[7] = test system: HeLa; test: Induction of apoptosis in human HeLa cells assessed as late apoptotic cells at 5 nM incubated for 48 hrs by Annexin V and propidium iodide Staining based assay (reference value: 1 %); format: functional
[8] = Metabolic stability in human liver microsomes assessed as parent compound remaining after 30 mins; format: ADME, Microsome; details: read-out: Stability
[9] = Metabolic stability in human liver microsomes assessed as half life; format: ADME, Microsome
[10] = test system: HeLa; test: Induction of apoptosis in human HeLa cells assessed as viable cells at 5 nM incubated for 48 hrs by Annexin V and propidium iodide Staining based assay (reference value: 98.5 %); format: functional; details: read-out: Activity
[11] = Metabolic stability in human liver microsomes assessed as parent compound remaining after 60 mins; format: ADME, Microsome; details: read-out: Stability
[12] = Metabolic stability in human liver microsomes assessed as parent compound remaining after 15 mins; format: ADME, Microsome; details: read-out: Stability
[13] = test system: HCT-116; test: Antiproliferative activity against human HCT-116 assessed as reduction in cell viability measured after 48 hrs by MTT assay; format: functional, cell-based; details: HCT-116, 48 h
[14] = test system: HeLa; test: Antiproliferative activity against human HeLa assessed as reduction in cell viability measured after 48 hrs by MTT assay; format: functional, cell-based

| IC50 [3] [nM] | IC50 [4] [nM] | IC50 [13] [nM] | IC50 [14] [nM] | Structure (SMILES) | further results |
| --- | --- | --- | --- | --- | --- |
| 80 | 167 | 108 | 85 | COc1cc(-c2nnc3c(OC)cc(-c4ccc5[nH]ccc5c4)cn23)cc(OC)c1OC |  |
| 5490 | 478 | 1540 | 3970 | C=C(c1cc(OC)c(OC)c(OC)c1)c1ccc2c(c1)c1ccccc1n2C |  |
| 259 | 198 | 275 | 119 | COc1cc(-c2nnc3c(OC4CC4)cc(-c4ccc5[nH]ccc5c4)cn23)cc(OC)c1OC |  |
| 140 | 334 | 228 | 210 | CCOc1cc(-c2ccc3c(ccn3C)c2)cn2c(-c3cc(OC)c(OC)c(OC)c3)nnc12 |  |
| 239 | 349 | 291 | 240 | CCOc1cc(-c2ccc3ccn(C)c3c2)cn2c(-c3cc(OC)c(OC)c(OC)c3)nnc12 |  |
| 295 | 922 | 2420 | 472 | CCOc1cc(-c2ccc3[nH]c4ccccc4c3c2)cn2c(-c3cc(OC)c(OC)c(OC)c3)nnc12 |  |
| 267 | 232 | 694 | 142 | COc1cc(-c2nnc3c(OC4CCC4)cc(-c4ccc5[nH]ccc5c4)cn23)cc(OC)c1OC |  |
| 125 | 176 | 750 | 177 | COc1cc(-c2nnc3c(OC4CCC4)cc(-c4ccc5c(ccn5C)c4)cn23)cc(OC)c1OC |  |
| 2470 | 9810 | 5370 | 2780 | COc1cc(-c2nnc3c(OC4COC4)cc(-c4ccc5[nH]ccc5c4)cn23)cc(OC)c1OC |  |
| 1120 | 3080 | 1800 | 820 | COc1cc(-c2nnc3c(OC)cc(-c4ccc5c(c4)c(C=O)cn5C)cn23)cc(OC)c1OC |  |
| > 10000 | > 10000 | > 10000 | > 10000 | COc1cc(-c2nnc3c(OC)cc(-c4ccc5[nH]cc(C=O)c5c4)cn23)cc(OC)c1OC |  |
| 118 | 168 | 135 | 97 | COc1cc(-c2nnc3c(OC4CC4)cc(-c4ccc5c(ccn5C)c4)cn23)cc(OC)c1OC |  |
| 382 | 614 | 483 | 199 | COc1cc(-c2nnc3c(OCC(F)(F)F)cc(-c4ccc5c(ccn5C)c4)cn23)cc(OC)c1OC |  |
| 1900 | 516 | 1290 | 214 | COc1cc(-c2nnc3c(OC4COC4)cc(-c4ccc5c(ccn5C)c4)cn23)cc(OC)c1OC |  |
| 303 | 901 | 386 | 350 | CCOc1cc(-c2ccc3c(c2)c2ccccc2n3C)cn2c(-c3cc(OC)c(OC)c(OC)c3)nnc12 |  |
| > 10000 | > 10000 | > 10000 | > 10000 | COc1cc(-c2nnc3c(OC4CN(C(C)(C)C)C4)cc(-c4ccc5[nH]ccc5c4)cn23)cc(OC)c1OC |  |
| 1020 | 1250 | 939 | 261 | COc1cc(-c2nnc3c(OC(C)C)cc(-c4ccc5[nH]ccc5c4)cn23)cc(OC)c1OC |  |
| 378 | 234 | 675 | 211 | CCCN1CC(Oc2cc(-c3ccc4c(ccn4C)c3)cn3c(-c4cc(OC)c(OC)c(OC)c4)nnc23)C1 |  |
|  | 15 | 21 | 8 | CC(=O)O[C@H]1C(=O)[C@@]2(C)[C@H]([C@H](OC(=O)c3ccccc3)[C@]3(O)C[C@H](OC(=O)[C@H](O)[C@@H](NC(=O)c4ccccc4)c4ccccc4)C(C)=C1C3(C)C)[C@]1(OC(C)=O)CO[C@@H]1C[C@@H]2O [PACLITAXEL] |  |
| 334 | 626 | 1340 | 272 | CCOc1cc(-c2ccc3cc[nH]c3c2)cn2c(-c3cc(OC)c(OC)c(OC)c3)nnc12 |  |
| 204 | 322 | 402 | 503 | COc1cc(-c2nnc3c(OC(C)C)cc(-c4ccc5c(ccn5C)c4)cn23)cc(OC)c1OC |  |
| > 10000 | > 10000 | > 10000 | > 10000 | COc1cc(-c2cc(OC)c3nnc(-c4ccc5[nH]ccc5c4)n3c2)cc(OC)c1OC |  |
| > 10000 | > 10000 | > 10000 | > 10000 | COc1cc(-c2cc(OC)c3nnc(-c4ccc5c(ccn5C)c4)n3c2)cc(OC)c1OC |  |
| 284 | 589 | 374 | 166 | CCOc1cc(-c2ccc3[nH]ccc3c2)cn2c(-c3cc(OC)c(OC)c(OC)c3)nnc12 |  |
| 608 | 585 | 900 | 348 | COc1cc(-c2nnc3c(OCC(F)(F)F)cc(-c4ccc5[nH]ccc5c4)cn23)cc(OC)c1OC |  |

| Structure (SMILES) | IC50 [3] [nM] | IC50 [4] [nM] | IC50 [13] [nM] | IC50 [14] [nM] | further results |
| --- | --- | --- | --- | --- | --- |
| COc1ccc(/C=C\c2cc(OC)c(OC)c(OC)c2)cc1O [COMBRETASTATIN A4] | 10 | 15 |  |  | Activity [1]: 2.6%; remaining at 0 min [2]: 100%; Activity [5]: 38.6%; remaining at 1.5 h [6]: 15.4%; Activity [7]: 52.2%; remaining at 0.5 h [8]: 54.1%; half-life [9]: 32.5 min; viability at 0.005 µM [10]: 6.7%; remaining at 1 h [11]: 26.1%; remaining at 0.25 h [12]: 75.6% |
| COc1ccc(/C=C/C=C\c2cc(OC)c(OC)c(OC)c2)cc1O | 75 | 118 | 42.3 | 62 | remaining at 0 min [2]: 100%; remaining at 1.5 h [6]: 9.2%; remaining at 0.5 h [8]: 26.3%; half-life [9]: 26.7 min; remaining at 1 h [11]: 12.5%; remaining at 0.25 h [12]: 47.7% |
| COc1cc2c(c(OC)c1OC)-c1ccc(OC)c(=O)cc1[C@@H](NC(C)=O)CC2 [COLCHICINE] | 48 | 111 | 83 | 103 |  |
